Measurements: publication PMC8837819, “Syrbactin-class dual constitutive- and immuno-proteasome inhibitor TIR-199 impedes myeloma-mediated bone degeneration in vivo” (Bioscience Reports, 2022)
Where two headings read alike, the source gives them in different places.

Legend:
[1] = target: T1, PSMB5-FLAG (chymotryptic-like activity, constitutive 26S proteasome) (Homo sapiens, UniProt P20618+P28074); assay: Proteasome activity assay on immunoprecipitated WT PSMB5-FLAG (Suc-LLVY-AMC); type: biochemical; conditions: for proteasomal activity of WT PSMB5: Suc-LLVY-AMC, relative to DMSO, n=3
T1 construct: made in house; host or cells: HEK293 cells stably expressing PSMB5-FLAG; FLAG immunoprecipitate
Method: (B) Wildtype (WT) PSMB5-FLAG was immunoprecipitated from HEK293 cells stably expressing PSMB5-FLAG. […] Also refer to Supplementary Figure S1. (D) HEK-293T cells were treated in the absence (DMSO) or presence of 0.5 μM of TIR-199 for 6 h. Cell lysates were subjected to immunoblotting with the indicated antibodies. […] (E) HEK-293T cells were treated in the absence (DMSO) or presence of either 0.1 μM of bortezomib (BTZ) or 0.2 μM of TIR-199 for 4 h. Cell lysates were subjected to immunoblotting with the indicated antibodies.

HEK293T cells = assay: Immunoblot of proteasome substrates and ubiquitylated proteins in HEK293T cells; type: cell-based, human
Method: Data were normalized to corresponding GAPDH levels. […] (D) HEK-293T cells were treated in the absence (DMSO) or presence of 0.5 μM of TIR-199 for 6 h. Cell lysates were subjected to immunoblotting with the indicated antibodies. Similar results were obtained in three independent replicates. (E) HEK-293T cells were treated in the absence (DMSO) or presence of either 0.1 μM of bortezomib (BTZ) or 0.2 μM of TIR-199 for 4 h. Cell lysates were subjected to immunoblotting with the indicated antibodies. Similar results were obtained in two independent replicates.

[2] = system: PSMB5 (AA/TV) bortezomib-resistant mutant; conditions: Suc-LLVY-AMC, relative to DMSO, n=3
[3] = system: PSMB9-FLAG (immunoproteasome); assay: Immunoproteasome activity assay on immunoprecipitated PSMB9-FLAG (Ac-PAL-AMC); type: biochemical, human; conditions: n=3; for PSMB9 activity at single concentration: 100 nM for 30 min, Ac-PAL-AMC
Text: Also refer to Supplementary Figure S2.

[4] = system: endogenous proteasome in MM.1S cells; assay: Chymotryptic-like proteasome activity in lysates of treated MM.1S cells; type: cell-based, human; conditions: 0.5 μM TIR-199 for 0.5 h vs DMSO, Suc-LLVY-AMC, n=3
[5] = system: proteasome in primary CD138+ myeloma cells; assay: Chymotryptic-like proteasome activity in primary CD138+ myeloma cells of patients; type: cell-based, human; conditions: CD138+ cells of two refractory patients; 500 nM for 0.5 h; Suc-LLVY-AMC; n=3
Text: CD138^+ myeloma cells were purified from the bone marrow aspirates which were obtained from HIPAA compliant de-identified consenting patients in accordance with Institutional Review Board protocol: 181027 approved on 9 October 2019 at UCSD. The bone marrow aspirates were kindly provided by Dr. Caitlin Costello, Moores Cancer Center, UCSD. CD138^+ primary myeloma cells were purified from fresh bone marrow aspirates of multiple myeloma patients using EasySep™ Human Whole Blood and Bone Marrow CD138 Positive Selection Kit II (StemCell Technologies) following manufacturer’s instructions. Viable cells were collected for further analyses.
Figure 1 TIR-199 is a syrbactin-based constitutive proteasome inhibitor (A) Chemical structure of syrbactin derivative TIR-199. (B) Wildtype (WT) PSMB5-FLAG was immunoprecipitated from HEK293 cells stably expressing PSMB5-FLAG. […] (C) Proteasome activity in lysates from MM.1S and primary CD138^+ myeloma cells purified from two patients treated with DMSO or 0.5 μM TIR-199 for 0.5 h was measured with Suc-LLVY-AMC. *P<0.05; **P<0.01; ***P<0.001 (compared with control treated, two-tailed paired Student’s t test, mean ± SD from n=3 replicates). Also refer to Supplementary Figure S1. (D) HEK-293T cells were treated in the absence (DMSO) or presence of 0.5 μM of TIR-199 for 6 h. Cell lysates were subjected to immunoblotting with the indicated antibodies. […]

[6] = system: panel of 50 protein kinases; assay: Kinase specificity profiling, panel of 50 protein kinases (33P-ATP); type: biochemical; conditions: 1 μM TIR-199 (20-fold PSMB5 IC50); triplicate reactions
Method: TIR-199 specificity profiling assays were carried out at The International Centre for Protein Kinase Profiling (http://www.kinase-screen.mrc.ac.uk/). TIR-199 kinase specificity was determined against a panel of 50 protein kinases as described previously. The assay mixes and ^33P-γATP were added by Multidrop 384 (Thermo). Results are presented as a percentage of kinase activity in DMSO control reactions. Protein kinases were assayed in vitro with 1 μM final concentration of TIR-199 and the results are presented as an average of triplicate reactions ± SD or in the form of comparative histograms.
Kinase profiling of TIR-199 at 1 μM was carried out against the panel of 50 kinases at the
International Centre for Protein Kinase Profiling (http://www.kinase-screen.mrc.ac.uk/).
(1 picture or pasted object on this page, not shown here)

A549 cells = assay: Cytotoxicity assay (MTS), A549; type: cell-based; conditions: 48 h
Method: MTS absorbance was measured in a Tecan plate reader.

[7] = system: MM.1S myeloma-mediated bone degeneration in NSG mice; assay: MM.1S/NSG systemic myeloma xenograft, μCT of femurs; type: in vivo, mouse; conditions: 5 mg/kg i.p. daily for 4 days
[8] = target: PSMB8-FLAG (immunoproteasome) (Homo sapiens, UniProt P20618+P28062); assay: Immunoproteasome activity assay on immunoprecipitated PSMB8-FLAG (Ac-ANW-AMC); conditions: 100 nM for 30 min; Ac-ANW-AMC; n=3
Method: (§1) Immunoproteasome activity assays were carried out as stated previously [32]. Briefly, HEK293 cells transiently overexpressing FLAG-tagged PSMB9 or PSMB8 were treated with IFNγ (100 ng/ml; 48 h) to induce expression of immunoproteasome. […] Immunoproteasomes were affinity purified using FLAG agarose from 2 mg of cell lysate. Peptidase activities of purified immunoproteasomes were assayed using 100 μM fluorogenic peptide substrates Ac-ANW-AMC for PSMB8 and Ac-PAL-AMC for PSMB9 (Boston Biochem) for 30 min.
(§2) (B) PSMB8 or PSMB9 was immunoprecipitated for 48 h in 100 ng/ml IFNγ-stimulated HEK293 cells transiently overexpressing either PSMB8-FLAG or PSMB9-FLAG. […] Fluorescence signal upon release of AMC was measured in a Tecan plate reader. […] Results are means ± S.D. for n=3 replicates.

[9] = target: PSMB8-FLAG (immunoproteasome) (Homo sapiens, UniProt P28062); assay: as above
Method: as §1, §2

[10] = vs vehicle, distal and proximal femur combined, n=6 femurs

Compound	proteasomal activity of WT PSMB5 ([1]; 10 nM bortezomib)	accumulation of ubiquitylated proteins (immunoblot) (HEK293T cells; 100 nM bortezomib for 4 h)	proteasomal activity of AA/TV PSMB5 ([2]; 10 nM bortezomib)	PSMB9 activity at single concentration [3]	IC50 [1]	proteasomal activity of WT PSMB5 ([1]; 100 nM TIR-199)	chymotryptic-like endogenous proteasome activity in cell lysates [4]	chymotryptic-like proteasome activity compared with DMSO [5]	accumulation of ubiquitylated proteins (immunoblot) (HEK293T cells; 200 nM TIR-199 for 4 h)	proteasome substrates p62, IKBα and p21 protein levels (immunoblot) (HEK293T cells; 250 nM TIR-199 for 6 h (legend: 0.5 μM))	inhibition of 50 kinases in vitro [6]	caspase-like activity of PSMB9 ([3]; up to 250 nM TIR-199, 100 μM Ac-PAL-AMC)	sensitivity to TIR-199 within lung cancer panel (A549 cells)	myeloma-mediated bone degeneration ([7]; femurs 7 days after dosing)	% bone volume over total volume (% BV/TV), femur μCT [7, 10]	trabecular number (Tb.N), femur μCT [7, 10]	trabecular separation (Tb.Sp), femur μCT [7, 10]	PSMB8 activity at single concentration [8]	IC50 [9]	proteasomal activity of AA/TV PSMB5 ([2]; 100 nM TIR-199)
CC(C)C[C@H](NC(=O)[C@H](Cc1ccccc1)NC(=O)c1cnccn1)B(O)O [bortezomib, reference compound]	dramatic reduction in proteasomal activity	accumulation of ubiquitylated proteins	significant resistance																	
COc1ccc(C[C@H](NC(=O)[C@H](C)NC(=O)CN2CCOCC2)C(=O)N[C@@H](Cc2ccccc2)C(=O)C2(C)CO2)cc1 (stereo in doubt) [ONX-0914, reference compound]				did not inhibit																
CCCCCCCCCCCCNC(=O)N[C@H](C(=O)N[C@H]1/C=C/CCNC(=O)/C=C/[C@H](C)NC1=O)C(C)C [TIR-199]				did not inhibit	0.05 µM	equally sensitive	inhibition of chymotryptic-like endogenous proteasome activity	decreased significantly	accumulation of ubiquitylated proteins	protein levels increased	does not inhibit	largely more resistant	relatively more resistant	slowed down the myeloma-mediated bone degeneration process	not significant	higher trabecular number	significantly lower trabecular separation	inhibited PSMB8 potently	~0.1 µM	equally sensitive
